Laboratory results: US9624167B2, “N-(4-hydroxy-4-methyl-cyclohexyl)-4-phenyl-benzenesulfonamides and N-(4-hydroxy-4-methyl-cyclohexyl)-4-(2-pyridyl)benzenesulfonamides and their therapeutic use” (PIMCO 2664 LIMITED, priority 2013, dated 2017)

How the values were obtained:
[1] = system: TK6 human lymphoblastoid cell line; experiment: GreenScreen HC cytotoxicity (propidium iodide uptake); assay type: cell-based
Method: GreenScreen HC is a mammalian cell-based assay for measuring the genotoxicity and cytotoxicity of chemical compounds and mixtures.
Cytotoxicity is measured in the GreenScreen assay alongside genotoxicity and the results of the cytotoxicity assessment are used to normalise the genotoxicity measurements as described above.
In the GreenScreen HC assay, cell viability is assessed using a propidium iodide uptake assay. Propidium iodide is an intercalating agent and a fluorescent molecule that can be used to stain cells. It is commonly used to quantitatively assess DNA content to evaluate cell viability or DNA content in cell cycle analysis and can be used to differentiate necrotic, apoptotic and normal cells (see, e.g., Dengler et al., 1995, Anticancer Drugs, Vol. 6, No. 4, pp. 522-532). Exposure to a cytotoxic compound increases the uptake of propidium iodide, which is monitored by optical absorbance and is proportional to […]. Cytotoxic compounds are those that show an observed decrease in relative population survival below a significance threshold set at 90% compared to vehicle-treated control, at one or more test concentrations.
A dilution series of each test compound is generated in parallel in a 96-well, black microplate with an optically clear base. A standard genotoxic compound (methyl methanesulfonate, MMS) is added as an intra-plate quality control check. The plates are analysed at 24 hour and 48 hour time points using a microplate reader, which provides measurements of light absorbance and fluorescence for cells and solutions in the microplates wells.
In addition to measurements of cell viability and genotoxicity described above, the GreenScreen assay incorporates an assessment of the effects of metabolic activation in the assay, the “GreenScreen HC S9 assay”. To accomplish this, the cells are incubated both in the presence of and absence of the post-mitochondrial supernatant liver extract (known as “S9”). S9 is routinely used in genetic toxicology to supplement the test cells with mammalian phase I metabolism. To assess metabolic activation, compounds are incubated with the TK6 strain in the presence of 1% v/v S9 fraction mix for 3 hours with a subsequent 45 hour recovery time. After the recovery period, the GFP fluorescence signal and cell viability (assessed by propidium iodide uptake) are measured using a flow cytometer. Cyclophosphamide, a commonly used control in genotoxicity studies utilising metabolic activation, is used as the positive control in the assay. In the GreenScreen HC S9 assay, genotoxicity is evaluated by induction in GFP expression quantified using the mean sample fluorescence and cytotoxicity using the propidium iodide uptake assay described above. The statistically defined threshold for a positive genotoxicity result is 1.3, i.e. 30% induction over and above the baseline for the vehicle-treated control and the result is reported as positive or negative. Cytotoxic compounds are those that show an observed decrease in relative population survival below a significance threshold set at 90% compared to vehicle-treated control, at one or more test concentrations.
Stably transfected reporter cell lines were derived from the p53-competent human lymphoblastoid TK6 cell line. The reporter cell line carries an episomally replicating plasmid bearing the upstream promoter region and other regulatory sequences of the human GADD45a gene linked to a human optimised Green Fluorescent Protein (GFP) gene. The control cell line carries an identical plasmid except for the removal of 4 base pairs at the start of the EGFP gene, such that GFP is not produced. Both plasmids also carry a gene conferring resistance to hygromycin B to the cell line, allowing continued selection for plasmid presence (200 μg/mL hygromycin B; Invitrogen Corporation, Carlsbad, Calif.). […]

[2] = system: J774 macrophages; experiment: Resazurin Macrophage J774 Viability Assay; assay type: cell-based; conditions: Mus musculus, 6 point concentration range 10 μM to 10 nM, n = 3 replicates, mean of 2 independent experiments, 72 hour incubation, read-out: IC50 (1)
Method: Potency was assessed using a viability assay based on the survival of the J774 macrophage cell line. Macrophages are closely related to osteoclasts and have been used previously as a model system for osteoclast survival (see, e.g., Luckman et al., 1998, “Heterocycle-containing bisphosphonates cause apoptosis and inhibit bone resorption by preventing protein prenylation: evidence from structure-activity relationships in J774 macrophages,” J. Bone Miner. Res., Vol. 13, pp. 1668-1678). The model is indicative both of effects on bone protection in diseases such as osteoporosis, osteoarthritis and rheumatoid arthritis, and of effects on inflammation since, like osteoclasts, J774 macrophages are dependent for survival on continued NFκB activation.
In vitro potency of test compounds was determined by incubation with J774 macrophages and subsequent determination of cell viability using resazurin.
Resazurin is a redox dye commonly used as an indicator of viability in cultured cells (see, e.g., Anoopkumar-Dukie, 2005, British Journal of Radiology, Vol. 78, pp. 945-947). It is non-toxic to cells and stable in culture medium, allowing continuous measurement of cell proliferation in vitro as either a kinetic or endpoint assay. The assay is based on the ability of viable, metabolically-active cells to reduce resazurin (which is blue and non-fluorescent) to resorufin and dihydroresorufin (which are red and fluorescent) using electrons from reducing species, such as nicotinamide adenine dinucleotide (NADPH) and flavin adenine dinucleotide (FADH). This transformation, from oxidised form to reduced form, can be measured either colorimetrically or fluorometrically. Insults that impair cell viability and proliferation also affects the capacity of cells to reduce resazurin, and the rate of dye reduction is directly proportional to the number of viable cells present.
For fluorescence measurements, 530-560 nm excitation and 590 nm emission wavelengths are typically used. For colorimetric measurements, absorbance at 570 nm (reduced form) and 600 nm (oxidised form) is typically measured. A simple calculation is performed to determine the relative quantities of the two species: a high ratio of resorufin (the reduced form) to resazurin (the oxidised form) is an indicator that cells are proliferating and viable. A low ratio indicates cells that are quiescent or non-viable.
J774 cells were plated at 10^4 cells per well in 100 μL αMEM (α Modified Eagle Medium) in 96-well plates and allowed to adhere overnight. The following day, test compounds were prepared as 100 mM solutions in DMSO. These stock solutions were diluted in DMSO and then diluted 1000× in culture medium (αMEM) before being added directly to the wells so as to give the desired final compound concentration. After a 72 hour incubation at 37° C./5% CO2, resazurin (Alamar Blue, Biosource International) was added to each well (1:10 v/v, 10 μL). The plate was then incubated at 37° C. for 3 hours and fluorescence was measured at 590 nm, with a 25 nm bandwidth.
The average results for each test compound were expressed as a percent (%) of the average control value reflecting cell viability. The average values across the concentrations tested were then plotted and the IC50 for was calculated by fitting the data to a 4-parameter IC50 equation using software from Grafit (Erithacus Software). Each experiment was repeated twice and the data are presented as the mean IC50 from both experiments.

## C[C@]1(O)CC[C@H](NS(=O)(=O)c2ccc(-c3ccc(F)cc3F)cc2)CC1 [ABD900, reference compound]
[1]; 48 h, absence of S9 fraction
  Cytotoxicity, LEC, 48 h, −S9: 0.07 µM
[1]; 48 h, presence of S9 fraction
  Cytotoxicity, LEC, 48 h, +S9: 74.1 µM
[1]; lowest effective concentration for loss of cell viability, 24 h
  Cytotoxicity, LEC, 24 h: 0.29 µM
[2]
  IC50: 560 nM
